Test systems include SW-620; LXFL 529; HCT-15; UACC-62; UO-31; SN12C; A498; SK-MEL-28; NCI-H460; EKVX; COLO 205; A549; KM12; UACC-257; Malme-3M; NCI-H23; RXF 393; PC-3; NCI/ADR-RES; BT-549.
Test in all cases: inhibition of tumour cell growth, NCI panel, 48 h

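Dose response: 5 concentrations. Exposure: 48 h. Format: 96-well plates. Endpoint: linear interpolation; highest concentration if not reached. At the GI50, growth is halved.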 Activity calls are given as the source filed them. Cut-off read from the data, not from the text of the source: active = GI50 up to about 1.1 µM and inactive = higher.

On to `COc1ccc(CC2NCCc3c2[nH]c2ccccc32)cc1` (centres undefined), for which the GI50 was 51.9 µM (inactive) in the experiment on SW-620; 62.4 µM (inactive) in the experiment with LXFL 529; 52.4 µM in the experiment on HCT-15; > 100 µM (inactive) in the experiment on UACC-62; 41.5 µM (inactive) with UO-31; 40.9 µM (inactive) with SN12C. Besides, the GI50 in the experiment on A498 was > 100 µM (inactive); with SK-MEL-28, > 100 µM (inactive); with NCI-H460, 35.6 µM (inactive); in the experiment on EKVX, > 100 µM (inactive); in the experiment with COLO 205, 17.4 µM (inactive); in the experiment on A549, > 100 µM (inactive). In addition, the GI50 with KM12 was 58.1 µM (inactive).

`Cc1ccc(Nc2nc3c(s2)C(=O)c2ccccc2C3=O)cc1`: the GI50 with SW-620 is 1.69 µM (inactive); in the experiment with LXFL 529, 1.63 µM (inactive); in the experiment on HCT-15 it was 1.94 µM; in the experiment with UACC-62 it was 1.87 µM (inactive); with UO-31, 2.03 µM (inactive); in the experiment with SN12C, 1.92 µM (inactive). The GI50 in the experiment with UACC-257 was 1.75 µM (inactive); in the experiment on A498, 16.4 µM (inactive); in the experiment on SK-MEL-28, 1.62 µM (inactive); with NCI-H460, 1.94 µM (inactive); in the experiment on EKVX, 5.14 µM (inactive); with COLO 205, 12.3 µM (inactive). Moreover, the GI50 is 1.92 µM (inactive) in the experiment with Malme-3M, 2.16 µM (inactive) in the experiment with A549, 1.55 µM (inactive) with KM12 and 1.82 µM (inactive) in the experiment on NCI-H23.

For `CC1CCC2(OCCO2)[C@]2(C)CC(O)C(=O)C=C12` (some centres undefined), the GI50 in the experiment on SW-620 is > 100 µM (inactive); with LXFL 529, > 100 µM (inactive); in the experiment with HCT-15 it was greater than 100 µM; in the experiment with UO-31, > 100 µM (inactive); in the experiment with SN12C, > 100 µM (inactive); with UACC-257, > 100 µM (inactive). The GI50 in the experiment with SK-MEL-28, with NCI-H460, in the experiment with EKVX, with COLO 205, in the experiment with Malme-3M and in the experiment with A549 was > 100 µM (inactive) throughout. Besides, the GI50 with KM12, with RXF 393 and in the experiment on NCI-H23 was > 100 µM (inactive) throughout.

In the case of `CCOC(=O)Nc1ccc(S(=O)(=O)I)cc1.CCOC(=O)Nc1ccc(S(=O)(=O)I)cc1.CN(C=O)C1=C(N(C)C=O)C(N(C)C=O)=C(N(C)C=O)C(=O)C1=O`, the GI50 in the experiment with SW-620 was > 100 µM (inactive); in the experiment on LXFL 529, > 100 µM (inactive); with HCT-15, greater than 100 µM; in the experiment on UACC-62 it was > 100 µM (inactive); with UO-31, > 100 µM (inactive); in the experiment with SN12C it was > 100 µM (inactive). Besides, the GI50 in the experiment on UACC-257, in the experiment on A498, with SK-MEL-28, in the experiment with NCI-H460, in the experiment on COLO 205 and in the experiment on Malme-3M was > 100 µM (inactive) each time. Also, the GI50 with A549, in the experiment with KM12 and in the experiment on NCI-H23 was > 100 µM (inactive) in each case.

Regarding `CC(C)N(C(=O)C12C3C4C5C3C1(C(=O)O)C5C42)C(C)C` (centres undefined), the GI50 was > 100 µM (inactive) in the experiment with SW-620; > 100 µM (inactive) with LXFL 529; greater than 100 µM with HCT-15; > 100 µM (inactive) in the experiment with UACC-62; > 100 µM (inactive) in the experiment on UO-31; > 100 µM (inactive) in the experiment with SN12C. Also, the GI50 in the experiment with UACC-257, with A498, with SK-MEL-28, in the experiment with NCI-H460, with EKVX and in the experiment with COLO 205 was > 100 µM (inactive) throughout. Further, the GI50 with Malme-3M, in the experiment with A549, in the experiment on KM12 and in the experiment on NCI-H23 was > 100 µM (inactive) in each case.

Regarding `COc1cccc(N2C(=O)[C@H]3[C@H]4CC(C(C)(C)C)CC[C@H]4c4c([nH]c5ccccc45)[C@H]3C2=O)c1` (some centres undefined), the GI50 in the experiment on SW-620 is 17.4 µM (inactive); in the experiment on LXFL 529 it was 20 µM (inactive); in the experiment on HCT-15 it was 34.6 µM; in the experiment with UACC-62, 14.6 µM (inactive); in the experiment with UO-31 it was 17.6 µM (inactive); in the experiment with SN12C, 13.4 µM (inactive). Besides, the GI50 was 20.6 µM (inactive) in the experiment on UACC-257; 18.7 µM (inactive) with SK-MEL-28; 20 µM (inactive) in the experiment on EKVX; 15.5 µM (inactive) with COLO 205; 20.6 µM (inactive) in the experiment on Malme-3M; 15.3 µM (inactive) with A549. Also, the GI50 in the experiment on KM12 is 39 µM (inactive); with RXF 393, 21.1 µM (inactive); in the experiment on NCI-H23, 19.2 µM (inactive).

Take `CC(=O)c1cc2c3c(c1)c1cc4c(cc1c(=O)n3CC2)OCO4`: the GI50 in the experiment on SW-620 was 7.78 µM (inactive); with LXFL 529, 10.4 µM (inactive); with HCT-15 it was 19.8 µM; in the experiment with UACC-62 it was 17.3 µM (inactive); in the experiment on UO-31 it was 8.11 µM (inactive); in the experiment with SN12C it was 16.8 µM (inactive). Besides, the GI50 with UACC-257 was 26.7 µM (inactive); in the experiment with SK-MEL-28, 65.3 µM (inactive); in the experiment with NCI-H460 it was 11.2 µM (inactive); in the experiment on EKVX, 46.2 µM (inactive); in the experiment on COLO 205, 29.6 µM (inactive); in the experiment with Malme-3M it was 23.3 µM (inactive). Further, the GI50 with A549 is 40.1 µM (inactive); in the experiment with KM12, 8.63 µM (inactive); in the experiment on RXF 393 it was 32.4 µM (inactive); in the experiment with NCI-H23, 75.5 µM (inactive).

On to `O=[N+]([O-])c1nccn1COCCI`, for which the GI50 was > 100 µM (inactive) with SW-620; > 100 µM (inactive) with LXFL 529; greater than 100 µM in the experiment on HCT-15; > 100 µM (inactive) with UACC-62; > 100 µM (inactive) in the experiment on UO-31; > 100 µM (inactive) in the experiment with SN12C. Also, the GI50 in the experiment on UACC-257, in the experiment with SK-MEL-28, in the experiment on NCI-H460, in the experiment with EKVX, in the experiment with COLO 205 and in the experiment with Malme-3M was > 100 µM (inactive) each time. Moreover, the GI50 in the experiment with A549, in the experiment on KM12 and in the experiment with NCI-H23 was > 100 µM (inactive) in each case.

For `NS(=O)(=O)c1ccc(NC(=O)c2cccc3c(=O)c4ccccc4[nH]c23)cc1`, the GI50 in the experiment on SW-620 was 78.9 µM (inactive); with LXFL 529, 30.6 µM (inactive); in the experiment on HCT-15, greater than 100 µM; in the experiment on UACC-62, 41.8 µM (inactive); in the experiment with UO-31, 18.6 µM (inactive); in the experiment on SN12C it was 94.4 µM (inactive). The GI50 was > 100 µM (inactive) in the experiment on UACC-257; 51.3 µM (inactive) with A498; 54.1 µM (inactive) with SK-MEL-28; > 100 µM (inactive) with NCI-H460; > 100 µM (inactive) with EKVX; 37.2 µM (inactive) with COLO 205. In addition, the GI50 with Malme-3M was 24.7 µM (inactive); in the experiment on A549, > 100 µM (inactive); in the experiment with KM12, 22.2 µM (inactive); with NCI-H23 it was 67.3 µM (inactive).

Take `CCCCCCOc1ccc(C(=O)N(C)O)cc1`: the GI50 with SW-620 was 10.2 µM (inactive); in the experiment on HCT-15 it was 4.41 µM; in the experiment with UACC-62 it was 16.1 µM (inactive); in the experiment on UO-31 it was 9.48 µM (inactive); in the experiment with SN12C, 11.9 µM (inactive); in the experiment with UACC-257, 36.6 µM (inactive). Further, the GI50 with A498 is 26.5 µM (inactive); in the experiment with SK-MEL-28 it was 40.7 µM (inactive); in the experiment with NCI-H460, 6.12 µM (inactive); with EKVX, 20.3 µM (inactive); in the experiment with COLO 205, 14.2 µM (inactive); with PC-3, 12.1 µM (inactive). The GI50 with Malme-3M is 14.1 µM (inactive); in the experiment on NCI/ADR-RES it was 10.1 µM (inactive); with BT-549, 33.7 µM (inactive); in the experiment with A549, 12.1 µM (inactive); in the experiment on KM12, 24 µM (inactive); in the experiment on RXF 393, 13.1 µM (inactive). In the experiment on NCI-H23, the GI50 was 11.9 µM (inactive).

`CCOC(=O)Cc1[nH]c(C(=O)c2ccccc2)cc1C(=O)c1ccccc1`: the GI50 in the experiment on SW-620 was > 100 µM (inactive); in the experiment with HCT-15, 68.7 µM; with UACC-62 it was > 100 µM (inactive); with UO-31, > 10 µM (inactive); in the experiment on SN12C, > 100 µM (inactive); with UACC-257, > 10 µM (inactive). Also, the GI50 is 36.8 µM (inactive) with A498; > 10 µM (inactive) with SK-MEL-28; 71.8 µM (inactive) in the experiment with NCI-H460; > 100 µM (inactive) in the experiment on EKVX; 21.7 µM (inactive) with COLO 205; > 10 µM (inactive) in the experiment with PC-3. Besides, the GI50 in the experiment with Malme-3M is 33.6 µM (inactive); in the experiment on NCI/ADR-RES, > 100 µM (inactive); in the experiment on BT-549 it was 20.6 µM (inactive); in the experiment with A549 it was 25.4 µM (inactive); in the experiment on KM12, 48.9 µM (inactive); with RXF 393, 24.3 µM (inactive). For the same compound, the GI50 with NCI-H23 is 17.4 µM (inactive).

In the case of `C1CCNCC1.Oc1ncnc2[nH]cc(CN3CCCCC3)c12`, the GI50 with SW-620 is 38 µM (inactive); in the experiment with HCT-15, greater than 100 µM; in the experiment with UACC-62, 83.9 µM (inactive); in the experiment with UO-31, 85.3 µM (inactive); in the experiment with SN12C, 48.8 µM (inactive); in the experiment with UACC-257, 21.5 µM (inactive). The GI50 with A498 is > 100 µM (inactive); in the experiment with SK-MEL-28 it was > 100 µM (inactive); in the experiment with NCI-H460, 16 µM (inactive); in the experiment on EKVX, > 100 µM (inactive); in the experiment on COLO 205 it was 73.3 µM (inactive); in the experiment with PC-3, > 100 µM (inactive). The GI50 in the experiment on Malme-3M is 64.9 µM (inactive); in the experiment with NCI/ADR-RES it was > 100 µM (inactive); in the experiment with BT-549, > 100 µM (inactive); in the experiment on A549 it was > 100 µM (inactive); in the experiment on KM12, > 100 µM (inactive); with RXF 393, 43.8 µM (inactive). Besides, the GI50 with NCI-H23 is > 100 µM (inactive).

(Values after ChEMBL document CHEMBL1201862, “PubChem BioAssay data set” (2004).)
